Experimental data as given in US10604535B2, “Compounds, compositions and methods” (Denali Therapeutics Inc., priority 2016, dated 2020).
pIC50: −log10 of the molar value.

These molecules were tested against GST-hRIPK1 (8-327) (Homo sapiens (Human), UniProt Q13546) (assay: Fluorescent Polarization Binding (FP Binding) assay).
Chain of GST-hRIPK1 (8-327) (Q13546 8-327): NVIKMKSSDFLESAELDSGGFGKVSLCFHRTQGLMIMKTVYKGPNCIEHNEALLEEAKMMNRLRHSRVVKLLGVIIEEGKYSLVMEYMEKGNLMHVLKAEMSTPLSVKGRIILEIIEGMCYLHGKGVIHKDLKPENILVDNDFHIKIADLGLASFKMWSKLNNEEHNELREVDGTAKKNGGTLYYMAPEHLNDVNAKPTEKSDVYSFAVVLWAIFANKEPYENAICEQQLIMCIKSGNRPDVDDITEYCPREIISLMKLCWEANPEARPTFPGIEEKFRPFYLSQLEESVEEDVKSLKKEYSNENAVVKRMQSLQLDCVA
`CN1C(=O)[C@H](NC(=O)c2nnc(Cc3ccccc3)[nH]2)CC2(CC2)c2cccnc21` [Example 125A, (R)-5-benzyl-N-(9′-methyl-8′-oxo-6′,7′,8′,9′-tetrahydrospiro[cyclopropane-1,5′-pyrido[2,3-b]azepin]-7′-yl)-4H-1,2,4-triazole-3-carboxamide] was tested, and the pIC50 was under 5.52. Work on `C[C@H]1Oc2cccnc2N(C)C(=O)[C@H]1NC(=O)c1nn(Cc2ccc(C#N)cc2)cc1F` [Example 127, 1-(4-Cyanobenzyl)-N-((2R,3S)-2,5-dimethyl-4-oxo-2,3,4,5-tetrahydropyrido[3,2-b][1,4]oxazepin-3-yl)-4-fluoro-1H-pyrazole-3-carboxamide] yielded a pIC50 of 6.00 to 10.00. Work on `Cc1cc2n(n1)CC[C@H](NC(=O)c1nnc(Cc3ccccc3)[nH]1)C(=O)N2C` [Example 129A, (S)-5-Benzyl-N-(2,4-dimethyl-5-oxo-5,6,7,8-tetrahydro-4H-pyrazolo[1,5-a][1,3]diazepin-6-yl)-4H-1,2,4-triazole-3-carboxamide] yielded a pIC50 of 6.00 to 10.00. `Cc1cc2n(n1)CC[C@@H](NC(=O)c1nnc(Cc3ccccc3)[nH]1)C(=O)N2C` [Example 129B, (R)-5-Benzyl-N-(2,4-dimethyl-5-oxo-5,6,7,8-tetrahydro-4H-pyrazolo[1,5-a][1,3]diazepin-6-yl)-4H-1,2,4-triazole-3-carboxamide] gave a pIC50 of under 5.52. In the case of `Cc1cnn2c1N(C)C(=O)[C@@H](NC(=O)c1nnc(Cc3ccccc3)[nH]1)CC2` [Example 131A, (S)-5-Benzyl-N-(3,4-dimethyl-5-oxo-5,6,7,8-tetrahydro-4H-pyrazolo[1,5-a][1,3]diazepin-6-yl)-4H-1,2,4-triazole-3-carboxamide], the pIC50 was 6.00 to 10.00. For `Cc1cnn2c1N(C)C(=O)[C@H](NC(=O)c1nnc(Cc3ccccc3)[nH]1)CC2` [Example 131B, (R)-5-Benzyl-N-(3,4-dimethyl-5-oxo-5,6,7,8-tetrahydro-4H-pyrazolo[1,5-a][1,3]diazepin-6-yl)-4H-1,2,4-triazole-3-carboxamide], the pIC50 was under 5.52. `O=C(N[C@@H]1COc2cccnc2-n2ccnc21)c1nnc(Cc2ccccc2)[nH]1` [Example 141A, (S)-5-Benzyl-N-(6,7-dihydroimidazo[1,2-d]pyrido[3,2-b][1,4]oxazepin-7-yl)-4H-1,2,4-triazole-3-carboxamide] was tested, and the pIC50 was under 5.52. In the case of `O=C(N[C@H]1COc2cccnc2-n2ccnc21)c1nnc(Cc2ccccc2)[nH]1` [Example 141B, (R)-5-benzyl-N-(6,7-dihydroimidazo[1,2-d]pyrido[3,2-b][1,4]oxazepin-7-yl)-4H-1,2,4-triazole-3-carboxamide], the pIC50 was 6.00 to 10.00. `CN1C(=O)[C@H](NC(=O)c2nnc(C3(c4ccccc4)CC3)o2)CCc2cccnc21` [Example 145B, (R)—N-(9-methyl-8-oxo-6,7,8,9-tetrahydro-5H-pyrido[2,3-b]azepin-7-yl)-5-(1-phenylcyclopropyl)-1,3,4-oxadiazole-2-carboxamide] was tested, and the pIC50 was under 5.52. Work on `CN1C(=O)[C@H](NC(=O)c2nnc(Cc3ccccc3)o2)CCc2cccnc21` [Example 148B, (R)-5-benzyl-N-(9-methyl-8-oxo-6,7,8,9-tetrahydro-5H-pyrido[2,3-b]azepin-7-yl)-1,3,4-oxadiazole-2-carboxamide] yielded a pIC50 of 5.00 to 6.00. `CN1C(=O)[C@H](NC(=O)c2nn(Cc3cccc(C#N)c3)cc2F)CCc2cccnc21` [Example 152A, (R)-1-(3-cyanobenzyl)-4-fluoro-N-(9-methyl-8-oxo-6,7,8,9-tetrahydro-5H-pyrido[2,3-b]azepin-7-yl)-1H-pyrazole-3-carboxamide] showed a pIC50 of under 5.52. With `C[C@H]1Oc2cccnc2N(C)C(=O)[C@H]1NC(=O)c1ccn(Cc2ccccc2)n1` [Example 155, 1-Benzyl-N-((2R,3S)-2,5-dimethyl-4-oxo-2,3,4,5-tetrahydropyrido[3,2-b][1,4]oxazepin-3-yl)-1H-pyrazole-3-carboxamide] the pIC50 was 6.00 to 10.00.
